Reference: patent US12527886B2, “Radiopharmaceuticals and composition for thrombus imaging” (THE ASAN FOUNDATION, priority 2020, dated 2026)

Test: Stability of Tc-99m labeled compound, labeling purity by HPLC
Assay type: physicochemical
Protocol: 2 mL of Tc-99m was added dropwise to a lyophilized vial including 0.1 mg of GP-104, 15 μg of SnCl2, and 10 μg of cysteine, the vial was allowed to stand at room temperature for 10 minutes, and the reaction was terminated by adjusting pH to 7 using a NaOH solution. Labeling purity was confirmed to be 93.21% by HPLC (analysis conditions: Luna C18 250×4.6 mm, phosphate buffer:acetonitrile (100:0, 0 to 5 minutes; 80:20, 5 to 10 minutes; 80:20, 17 minutes; 100:0, 17.1 minutes). 100:0. 20 min), 1.0 mL/min, UV=280 nm).
In order to confirm the effect of cysteine addition after the reaction, the following experiment was performed: 0.1 mg of GP-104 was dissolved in water for injection, the pH was adjusted to about 3.5 when 10 μL of SnCl2 (1.5 mg/mL) and 2 mL of Tc-99m were added thereto, and the resulting mixture was allowed to stand at room temperature for 10 minutes. The reaction was terminated by adjusting the pH to 7 using a NaOH solution and 10 μL of cysteine (1.0 mg/mL). Labeling purity was confirmed to be 91.4% using HPLC in the same manner as in Example 2-7.
After 0.1 mg of GP-104 was dissolved in water for injection, pH was adjusted to about 3.5 and the resulting solution was allowed to stand at room temperature for 10 minutes when 10 μL of SnCl2 (1.5 mg/mL), 10 μL of cysteine (1.0 mg/mL) and 2 mL of Tc-99m were added thereto, and the reaction was terminated by adjusting the pH to 7 using a NaOH solution. Labeling purity was confirmed to be 94.84% using HPLC in the same manner as in Example 2-7.
HCl and NaOH was additionally added dropwise to the solution of Example 2-8 to perform a stability evaluation by adjusting the final pH of the solution to acidic (pH 5.5) and basic (pH 8.5) conditions, and labeling purity was confirmed using HPLC in the same manner as in Example 2-7.
HCl and NaOH was additionally added dropwise to the solution of Example 2-9 to perform a stability evaluation by adjusting the final pH of the solution to acidic (pH 5.5) and basic (pH 8.5) conditions, and labeling purity was confirmed using HPLC in the same manner as in Example 2-7.
HCl and NaOH was additionally added dropwise to the solution of Example 2-10 to perform a stability evaluation by adjusting the final pH of the solution to acidic (pH 5.5) and basic (pH 8.5) conditions, and labeling purity was confirmed using HPLC in the same manner as in Example 2-7.
0.1 mg of GP-105 was dissolved in water for injection, the pH was adjusted to about 3.5 when 10 μL of SnCl2 (1.5 mg/mL) and 2 mL of Tc-99m were added thereto, and the resulting mixture was allowed to stand at room temperature for 10 minutes. The reaction was terminated by adjusting the pH to 7 using a NaOH solution and 10 μL of cysteine (1.0 mg/mL). Labeling purity was confirmed to be 98.1% using HPLC in the same manner as in Example 2-7.
HCl and NaOH was additionally added dropwise to the solution of Example 2-12 to perform a stability evaluation by adjusting the final pH of the solution to acidic (pH 5.5) and basic (pH 8.5) conditions, and labeling purity was confirmed using HPLC in the same manner as in Example 2-7.
HCl and NaOH was additionally added dropwise to the solution of Example 2-13 to perform a stability evaluation by adjusting the final pH of the solution to acidic (pH 5.5) and basic (pH 8.5) conditions, and labeling purity was confirmed using HPLC in the same manner as in Example 2-7.
HCl and NaOH was additionally added dropwise to the solution of Example 2-14 to perform a stability evaluation by adjusting the final pH of the solution to acidic (pH 5.5) and basic (pH 8.5) conditions, and labeling purity was confirmed using HPLC in the same manner as in Example 2-7.

radiochemical purity (HPLC) (Ex 4-3, addition of cysteine after reaction, NaOH mixed, 0 hour): 98.06%
radiochemical purity (HPLC) (Ex 4-3, addition of cysteine after reaction, NaOH mixed, 1 hour): 95.17%
radiochemical purity (HPLC) (Ex 4-3, addition of cysteine after reaction, NaOH mixed, 2 hours): 94.14%
radiochemical purity (HPLC) (Ex 4-3, addition of cysteine after reaction, NaOH mixed, 3 hours): 91.91%
radiochemical purity (HPLC) (Ex 4-3, addition of cysteine after reaction, NaOH mixed, 4 hours): 89.00%
radiochemical purity (HPLC) (Ex 4-3, addition of cysteine after reaction, NaOH separately, 0 hour): 99.39%
radiochemical purity (HPLC) (Ex 4-3, addition of cysteine after reaction, NaOH separately, 1 hour): 99.04%
radiochemical purity (HPLC) (Ex 4-3, addition of cysteine after reaction, NaOH separately, 2 hours): 97.02%
radiochemical purity (HPLC) (Ex 4-3, addition of cysteine after reaction, NaOH separately, 3 hours): 91.14%
radiochemical purity (HPLC) (Ex 4-3, addition of cysteine after reaction, NaOH separately, 4 hours): 66.87%
radiochemical purity (HPLC) (solution of Example 2-12 (165 nmol cysteine), pH 5.5, 0 hr): 100%
radiochemical purity (HPLC) (solution of Example 2-12 (165 nmol cysteine), pH 5.5, 2 hr): 85.49%
radiochemical purity (HPLC) (solution of Example 2-12 (165 nmol cysteine), pH 5.5, 4 hr): 82.11%
radiochemical purity (HPLC) (solution of Example 2-12 (165 nmol cysteine), pH 7, 0 hr): 100%
radiochemical purity (HPLC) (solution of Example 2-12 (165 nmol cysteine), pH 7, 2 hr): 94.88%
radiochemical purity (HPLC) (solution of Example 2-12 (165 nmol cysteine), pH 7, 4 hr): 85.55%
radiochemical purity (HPLC) (solution of Example 2-12 (165 nmol cysteine), pH 8.5, 0 hr): 100%
radiochemical purity (HPLC) (solution of Example 2-12 (165 nmol cysteine), pH 8.5, 2 hr): 50.64%
radiochemical purity (HPLC) (solution of Example 2-12 (165 nmol cysteine), pH 8.5, 4 hr): 23.98%
radiochemical purity (HPLC) (solution of Example 2-13 (82.5 nmol cysteine + 82.5 nmol VB1), pH 5.5, 0 hr): 100%
radiochemical purity (HPLC) (solution of Example 2-13 (82.5 nmol cysteine + 82.5 nmol VB1), pH 5.5, 2 hr): 100%
radiochemical purity (HPLC) (solution of Example 2-13 (82.5 nmol cysteine + 82.5 nmol VB1), pH 5.5, 4 hr): 98.63%
radiochemical purity (HPLC) (solution of Example 2-13 (82.5 nmol cysteine + 82.5 nmol VB1), pH 7, 0 hr): 100%
radiochemical purity (HPLC) (solution of Example 2-13 (82.5 nmol cysteine + 82.5 nmol VB1), pH 7, 2 hr): 100%
radiochemical purity (HPLC) (solution of Example 2-13 (82.5 nmol cysteine + 82.5 nmol VB1), pH 7, 4 hr): 94.88%
radiochemical purity (HPLC) (solution of Example 2-13 (82.5 nmol cysteine + 82.5 nmol VB1), pH 8.5, 0 hr): 100%
radiochemical purity (HPLC) (solution of Example 2-13 (82.5 nmol cysteine + 82.5 nmol VB1), pH 8.5, 2 hr): 94.13%
radiochemical purity (HPLC) (solution of Example 2-13 (82.5 nmol cysteine + 82.5 nmol VB1), pH 8.5, 4 hr): 90.17%
SMILES: O=C(O)C[C@H](NC(=O)[C@@H]1CCCN(C(=O)CCC2CCNCC2)C1)c1cncc(OCCNC(=O)CN2CC(=O)[O][99Tc-]3([O]C(=O)C2)[O]C(=O)CN(CC(=O)NCCOc2cncc([C@H](CC(=O)O)NC(=O)[C@@H]4CCCN(C(=O)CCC5CCNCC5)C4)c2)CC(=O)[O]3)c1 [[Tc-99m]GP-105]
